Source: PubChem BioAssay AID977627 (Broad Institute, 2014)
Records with an inconclusive call do not appear.

Test system: E. coli H38 humanized ribosome GFP strain, fluorescence, 24 h
Assay: growth inhibition of wild-type RFP versus H38-humanized GFP E. coli, dose response, H38 mutant GFP vs wild-type RFP, cherry-pick (AID 977627)
Conditions: measured here: total growth OD600

CC1(Cc2ccccc2C#N)C(=O)Nc2cc(-c3ccccc3Cl)ccc21 (configuration not stated)
AC50: 41.9 µM

COC(=O)c1c(NC(=O)CCC(=O)O)sc(Cc2ccccc2)c1C
AC50: > 100 µM
